{"source": "patent US20110009332A1", "about": "“Therapeutic Treatment Of Wounds” (SOUTHWEST RESEARCH INSTITUTE, priority 2009, published 2011)", "biological_target": "20S proteasomes (Homo sapiens, UniProt P28074)", "experiment": "Inhibition of 20S proteasome enzyme activity", "assay_type": "biochemical", "details": "0 nM to 10,000 nM, FIGS. 7-9", "description": "The IC50 may be understood as the amount of a particular substance/molecule needed to inhibit a given biological process in vitro by 50% and may be an indicator of the potency of a compound. The activity of the proteasome may be quantified by measuring the amount of fluorescence produced by cleavage of a fluorogenic substrate, such as LLVY-AMC, which when released by proteasomal cleavage, may emit fluorescent light.\nThe enzyme activity of 20S proteasomes was measured upon increasing addition of the proteasome inhibitors PS-1, curcumin and genestein in concentrations ranging from 0 nM to 10,000 nM. In particular, FIG. 7 illustrates the inhibition of 20S proteasomes upon the addition of PS-1. […] FIG. 8 illustrates the inhibition of the 20S proteasomes upon the addition of curcumin. […] FIG. 9 illustrates the inhibition of the 20S proteasomes upon the addition of genestein."}
{"smiles": "O=c1c(-c2ccc(O)cc2)coc2cc(O)cc(O)c12", "note": "[genestein]", "values": [{"measurement": "enzyme activity of 20S proteasomes with increasing inhibitor concentration (in words)", "result": "relatively smaller decrease in enzyme activity"}]}
